This is an account of results in patent publication US20250186450A1, “COMBINATION THERAPY COMPRISING DGK INHIBITORS and PD-1/PD-L1 INHIBITORS” (Incyte Corporation, priority 2023, published 2025).

“Also recorded” adds a separate entry of the source.

Assay [1] has as its system CT26 syngeneic tumors overexpressing human PD-L1 (Clone299). Description: Human PD-1/human PD-L1 dual knock-in model. In kind it is in vivo, human PD-1/human PD-L1 dual Knock-In mice. The procedure: The in vivo effect of combining Compound 1 plus (R)-1-((7-cyano-2-(3′-(2-(difluoromethyl)-7-((3-hydroxypyrrolidin-1-yl)methyl)pyrido[3,2-d]pyrimidin-4-ylamino)-2,2′-dimethylbiphenyl-3-yl)benzo[d]oxazol-5-yl)methyl)piperidine-4-carboxylic acid (i.e., Compound A) was assessed in 8 to 10 weeks old human PD-1/human PD-L1 dual Knock-In mice (GemPharmatech, Shanghai, China) using CT26 syngeneic tumors overexpressing human PD-L1 (Clone299, Synthego, California). Both Compound 1 and Compound A were suspended in 5% N,N-dimethylacetamide (DMAC)+50 mM Citrate buffer in 0.5% methyl cellulose for oral administration. […] On day 17, tumor dimensions were measured by Vernier calipers, and volume estimated by the formula Volume=[L (long dimension)×W^2 (short dimension)]/2. […] Tumors were measured 3 times per week for the duration of the study. […]
The in vivo effect of Compound 2 plus Anti-PD-L1 (atezolizumab) was assessed in 8 to 10 weeks old human PD-1/human PD-L1 dual Knock-In mice (GemPharmatech, Shanghai, China) using CT26 syngeneic tumors overexpressing human PD-L1 (Clone299, Synthego, California). […] On day 12, tumor dimensions were measured by Vernier calipers, and volume estimated by the formula Volume=[L (long dimension)×W^2 (short dimension)]/2. […] Tumors were measured 3 times per week for the duration of the study. […]

The test system of assay [2] is CT26 syngeneic tumor model. Description: CT26 syngeneic tumor model, DGK inhibitor plus anti-PD-1 (RMP1-14). The note with it: for tumor growth delay vs control vehicle group: Compound 1 alone. In kind it is in vivo, Balb/C mice. The procedure: The in vivo effect of combining Compound 1 plus anti-PD-1 (RMP1-14, Bio X Cell) was assessed in the CT26 (CRL-2638, ATCC, Manassas, VA) syngeneic tumor model (see FIG. 1) in 6 to 8 weeks old Balb/C mice (Jackson laboratories). Compound 1 was suspended in 5% N,N-dimethylacetamide (DMAC)+50 mM Citrate buffer in 0.5% methyl cellulose for oral administration and RMP1-14 was suspended in saline for intraperitoneal administration. Briefly, the left flank of the mice was shaved the day prior to subcutaneous inoculation with 1×10^6 CT26 cells suspended in PBS. On day 7, tumor dimensions were measured by Vernier calipers, and volume estimated by the formula Volume=[L (long dimension)×W^2 (short dimension)]/2. Mice were randomized into 6 groups of 10 mice of approximate mean volume (˜150 mm^3). Tumors were measured 3 times per week for the duration of the study. Starting day 7, mice were dosed with (i) vehicle; (ii) 250 μg/mouse of RMP1-14; (iii) 10 mg/kg of Compound 1; (iv) 3 mg/kg of Compound 1; (v) 10 mg/kg of Compound 1 and 250 μg/mouse of RMP1-14; or (vi) 3 mg/kg of Compound 1 and 250 μg/mouse of RMP1-14. Compound 1 was administered orally once daily (QD) for 14 days, while RMP1-14 was dosed every 5 days (for a total of 3 doses).
In a separate experiment, mice were randomized on day 7 into 10 groups of 10 mice of approximate mean volume (˜120 mm^3). Tumors were measured 3 times a week for the duration of the efficacy study (day 22). Starting day 7, mice were dosed with (i) vehicle; (ii) 250 μg/mouse of RMP1-14; (iii) 10 mg/kg of Compound 1 QD; (iv) 10 mg/kg of Compound 1 Q2D; (v) 3 mg/kg of Compound 1 QD; (vi) 3 mg/kg of Compound 1 […]; (vii) 10 mg/kg of Compound 1 QD and 250 μg/mouse of RMP1-14; (viii) 10 mg/kg of Compound 1 Q2D and 250 μg/mouse of RMP1-14; (ix) 3 mg/kg of Compound 1 QD and 250 μg/mouse of RMP1-14; or (x) 3 mg/kg of Compound 1 Q2D and 250 μg/mouse of RMP1-14. Compound 1 was administered orally either daily (QD) or every other day (Q2D) for 10 days, while RMP1-14 was dosed every 5 days (for a total of 2 doses).
The in vivo effect of combining Compound 2 plus anti-PD-1 (RMP1-14, Bio X Cell) was assessed in the CT26 (CRL-2638, ATCC, Manassas, VA) syngeneic tumor model (see FIG. 6A-6B) in 6 to 8 weeks old Balb/C mice (Jackson laboratories). Compound 2 was suspended in 5% N,N-dimethylacetamide (DMAC)+50 mM Citrate buffer in 0.5% methyl cellulose for oral administration and RMP1-14 was suspended in saline for intraperitoneal administration. Briefly, the left flank of the mice was shaved the day prior to subcutaneous inoculation with 1×10^6 CT26 cells suspended in PBS. On day 7, tumor dimensions were measured by Vernier calipers, and volume estimated by the formula Volume=[L (long dimension)×W^2 (short dimension)]/2. Mice were randomized into 6 groups of 10 mice of approximate mean volume (˜130 mm^3). Tumors were measured 3 times per week for the duration of the study. Starting day 7, mice were dosed with (i) vehicle; (ii) 250 μg/mouse of RMP1-14 (Anti-PD-1); (iii) 1.5 mg/kg of Compound 2 QD; (iv) 1.5 mg/kg of Compound 2 QD and 250 μg/mouse of RMP1-14; (v) 1.5 mg/kg of Compound 2 Q2D; (vi) 1.5 mg/kg of Compound 2 Q2D and 250 μg/mouse of RMP1-14; (vii) 1.5 mg/kg of Compound 2 Q3D; or (viii) 1.5 mg/kg of Compound 2 Q3D and 250 μg/mouse of RMP1-14.

In the case of `Cc1nc2c(N3C[C@@H](C)N(C(c4ccc(C(F)(F)F)cc4)C4CC(F)(F)C4)C[C@@H]3C)nc3nncn3c2n1C[C@@H]1CCCO1` (single isomer, unassigned) [Example 2], the “TGI, combined with Anti-PD-L1 mAb, vs Anti-PD-L1 mAb control group” value in assay [1] (1.5 mg/kg Compound 2 Q2D and Anti-PD-L1 (atezolizumab), FIG. 8) is “statistically significant; also recorded: significant TGI”. Moreover, the “TGI, combined with anti-PD-1 mAb” value in assay [2] (1.5 mg/kg Compound 2 Q2D and 250 μg/mouse RMP1-14, FIGS. 6A-6B) was “significant TGI”. Besides, the “TGI, combination groups vs respective single-arm control group” value in assay [2] (1.5 mg/kg Compound 2 QD, Q2D or Q3D and 250 μg/mouse RMP1-14) was “statistically significant”. Further, the “TGI vs vehicle control group” value in assay [2] (Compound 2 alone, 1.5 mg/kg QD, Q2D or Q3D, FIG. 6B) is listed as “None of the single treatment arm groups dosed with 1.5 mg/kg Compound 2 provided statistically significant TGI”.

In the case of `C[C@@H]1CN(c2nc3nncn3c3c2nnn3C[C@H]2CCCO2)[C@@H](C)CN1C(c1ccc(F)cc1)c1ccc(F)cc1` [Example 1, 4-((2S,5R)-4-(Bis(4-fluorophenyl)methyl)-2,5-dimethylpiperazin-1-yl)-1-(((R)-tetrahydrofuran-2-yl)methyl)-1H-[1,2,3]triazolo[4,5-e][1,2,4]triazolo[4,3-a]pyrimidine], the “combination effect on tumor growth delay (Bliss Independence analysis)” value in assay [1] (10 mg/kg Compound 1 QD with 25 mg/kg Compound A BID for 15 days, vs respective controls, FIG. 4) is on record as “synergistic effect in tumor growth delay”; in assay [2] (10 mg/kg or 3 mg/kg Compound 1 QD for 14 days with 250 μg RMP1-14 every 5 days, vs respective controls, FIG. 1), “synergistic effect in tumor growth delay”; in assay [2] (10 mg/kg or 3 mg/kg Compound 1 QD or Q2D for 10 days with 250 μg RMP1-14, vs respective controls, FIG. 2), “synergistic effect in tumor growth delay”. Also, the “tumor growth delay vs control vehicle group” value in assay [2] (10 mg/kg orally QD for 14 days, FIG. 1) is listed as “therapeutic effect in delaying tumor growth”; in assay [2] (10 and 3 mg/kg QD for 10 days, separate experiment, FIG. 2), “therapeutic effect in delaying tumor growth”. For the same compound, the “tumor volume vs RMP1-14 alone (Kruskal-Wallis Multiple Comparison Test)” value in assay [2] (all groups tested against group (ii) 250 μg/mouse RMP1-14, FIG. 2) is recorded as “statistical significance”.
